From patent publication US4450269A, “Mono-5-substituted-3-chloro-4H-1,2,6-thiadiazin-4-one antifungal agents” (FMC Corporation, priority 1980, dated 1984)
Counter-ions that a name gives are not always drawn.

Columns and labels:
Pyricularia oryzae = assay: microbe, parasite or virus in culture; type: cell-based; settings: for inhibition at 5 ppm / inhibition at 10 ppm / inhibition at 20 ppm / inhibition at 40 ppm: Pyricularia oryzae, 72 h; for inhibition at 5 ppm: read-out: Percent Fungus Growth Inhibition, PO, 5 ppm, 72 hours; for inhibition at 10 ppm: read-out: Percent Fungus Growth Inhibition, PO, 10 ppm, 72 hours; for inhibition at 20 ppm: read-out: Percent Fungus Growth Inhibition, PO, 20 ppm, 72 hours; for inhibition at 40 ppm: read-out: Percent Fungus Growth Inhibition, PO, 40 ppm, 72 hours; for Percent Fungus Growth Inhibition: PO, 72 hours
Venturia inaequalis = assay: Spore germination test; type: cell-based; settings: VI, 48 hours
Protocol: VI = Venturia inaequalis
The test chemical was dissolved or suspended in acetone in an amount such that 0.8 ml of the resulting suspension or solution, mixed with 40 ml water agar produced a water agar solution containing 40, 10, 2.5 and 1 ppm of test chemical. The resulting agar solution, at 50° C., was then divided equally between two sterile petri dishes, each having four separated quadrants, and allowed to solidify. […] quadrants of each dish were flooded with 0.1 ml of a spore suspension in sterile water. Spores of two pathogens, Erysiphe polygoni and Uromyes phaseoli, from infected plant leaves, were brushed on the remaining two quadrants. The tests were then incubated 48 hours, at 24° C.
Readings were then taken and the percentage of germinated spores calculated. From this percentage, a spore germination rating was assigned as follows: […]

SMILES	inhibition at 5 ppm (Pyricularia oryzae) [%]	inhibition at 10 ppm (Pyricularia oryzae) [%]	inhibition at 20 ppm (Pyricularia oryzae) [%]	inhibition at 40 ppm (Pyricularia oryzae) [%]	Spore Germination Rating (Venturia inaequalis; 1.0 ppm)	Spore Germination Rating (Venturia inaequalis; 2.5 ppm)	Spore Germination Rating (Venturia inaequalis; 10 ppm)	Spore Germination Rating (Venturia inaequalis; 40 ppm)	Percent Fungus Growth Inhibition (Pyricularia oryzae; 5 ppm) [%]	Percent Fungus Growth Inhibition (Pyricularia oryzae; 10 ppm) [%]	Percent Fungus Growth Inhibition (Pyricularia oryzae; 20 ppm) [%]	Percent Fungus Growth Inhibition (Pyricularia oryzae; 5 ppm, hydrochloride) [%]	Percent Fungus Growth Inhibition (Pyricularia oryzae; 10 ppm, hydrochloride) [%]	Percent Fungus Growth Inhibition (Pyricularia oryzae; 20 ppm, hydrochloride) [%]	Percent Fungus Growth Inhibition (Pyricularia oryzae; 40 ppm, hydrochloride) [%]	Spore Germination Rating (Venturia inaequalis; 1.0 ppm, hydrochloride)	Spore Germination Rating (Venturia inaequalis; 2.5 ppm, hydrochloride)	Spore Germination Rating (Venturia inaequalis; 10 ppm, hydrochloride)	Spore Germination Rating (Venturia inaequalis; 40 ppm, hydrochloride)
Cc1cc(Cl)c(Oc2nsnc(Cl)c2=O)cc1C [Compound 58, 3-chloro-5-[(2-chloro-4,5-dimethyl)phenoxy]-4H--1,2,6-thiadiazin-4-one]	43	54	29	50	2 (40-60)	1 (10-40)	0 (0-10)	0 (0-10)											
O=c1c(Cl)nsnc1Oc1cccc2ccccc12 [Compound 32, 3-chloro-5(1-naphthoxy)-4H-1,2,6-thiadiazin-4-one]	67	78	100	89	3 (60-80)	0 (0-10)	0 (0-10)	0 (0-10)											
CC(C)(C)c1ccc(Oc2nsnc(Cl)c2=O)cc1 [Compound 4, 3-chloro-5-(4-tert-butylphnoxy)-4H--1,2,6-thiadiazin-4-one]	0	0	0	19	4 (80-100)	4 (80-100)	0 (0-10)	0 (0-10)											
O=c1c(Cl)nsnc1Oc1ccc(Cl)c(Cl)c1 [Compound 16, 3-chloro-5-(3,4-dichlorophenoxy)-4H--1,2,6-thiadiazin-4-one]	41	48	48	41	0 (0-10)	0 (0-10)	0 (0-10)	0 (0-10)											
Nc1ccc(Oc2nsnc(Cl)c2=O)cc1 [Compound 26, 5-(4-aminophenoxy)-3-chloro-4H--1,2,6-thiadiazin-4-one]				100	4 (80-100)	4 (80-100)	4 (80-100)	1 (10-40)	0	48	90								
Cc1ccc(Oc2nsnc(Cl)c2=O)cc1 [Compound 3, 3-chloro-5-(4-methylphenoxy)-4H--1,2,6-thiadiazin-4-one]	19	41	41	93	4 (80-100)	4 (80-100)	0 (0-10)	0 (0-10)											
CC(=O)Nc1ccc(Oc2nsnc(Cl)c2=O)cc1 [Compound 8, 5-(4-acetylaminophenoxy)-3-chloro-4H--1,2,6-thiadiazin-4-one]	23	0	48	74	4 (80-100)	3 (60-80)	2 (40-60)	0 (0-10)											
Cc1ccc(Oc2nsnc(Cl)c2=O)c(Br)c1 [Compound 57, 3-[(2-bromo-4-methyl)-phenoxy]-5-chloro-4H--1,2,6-thiadiazin-4-one]	46	61	71	61	2 (40-60)	0 (0-10)	0 (0-10)	0 (0-10)											
O=c1c(Cl)nsnc1Oc1c(Cl)cccc1Cl [Compound 18, 3-chloro-5-(2,6-dichlorophenoxy)-4H--1,2,6-thiadiazin-4-one]	26	32	48	48	1 (10-40)	0 (0-10)	0 (0-10)	0 (0-10)											
O=c1c(Cl)nsnc1Oc1c(Cl)c(Cl)c(Cl)c(Cl)c1Cl [Compound 31, 3-chloro-5-(pentachlorophenoxy)-4H--1,2,6-thiadiazine-4-one]	33	48	62	57	0 (0-10)	0 (0-10)	0 (0-10)	0 (0-10)											
O=c1c(Cl)nsnc1Oc1ccc(Cl)cc1 [Compound 12, 3-chloro-5-(4-chlorophenoxy)-4H--1,2,6-thiadiazin-4-one]	19	30	59	85	1 (10-40)	0 (0-10)	0 (0-10)	0 (0-10)											
O=c1c(Cl)nsnc1Oc1cccc(Cl)c1Cl [Compound 19, 3-chloro-5-(2,3-dichlorophenoxy)-4H--1,2,6-thiadiazin-4-one]	39	48	68	87	1 (10-40)	0 (0-10)	0 (0-10)	0 (0-10)											
O=c1c(Cl)nsnc1Oc1c(Cl)cc(Cl)cc1Cl [Compound 30, 3-chloro-5-(2,4,6-trichlorophenoxy)-4H--1,2,6-thiadiazin-4-one]	10	71	84	90	1 (10-40)	0 (0-10)	0 (0-10)	0 (0-10)											
CC(=O)Nc1ccccc1Oc1nsnc(Cl)c1=O [Compound 43, 3-[(2-acetylamino)-phenoxy]-5-chloro-4H--1,2,6-thiadiazin-4-one]	13	18	24	24	4 (80-100)	4 (80-100)	4 (80-100)	2 (40-60)											
CNC(=O)Nc1ccc(Oc2nsnc(Cl)c2=O)cc1 [Compound 28, 3-chloro-5-[4-(3-methylureido)-phenoxy]-4H--1,2,6-thiadiazin-4-one]	24	24	52	90	4 (80-100)	4 (80-100)	2 (40-60)	3 (60-80)											
CC(=O)c1ccccc1Oc1nsnc(Cl)c1=O [Compound 49, 3-(2-acetylphenoxy)-5-chloro-4H--1,2,6-thiadiazin-4-one]	29	38	53	74	4 (80-100)	4 (80-100)	1 (10-40)	0 (0-10)											
O=C(O)Cc1ccccc1Oc1nsnc(Cl)c1=O [Compound 45, 3-(2-carboxymethylphenoxy)-5-chloro-4H--1,2,6-thiadiazin-4-one]	0	0	0	11	4 (80-100)	4 (80-100)	4 (80-100)	0 (0-10)											
Cc1ccccc1Oc1nsnc(Cl)c1=O [Compound 22, 3-chloro-5-(2-methylphenoxy)-4H--1,2,6-thiadiazin-4-one]	21	33	54	63	0 (0-10)	0 (0-10)	0 (0-10)	0 (0-10)											
O=C(Nc1ccccc1)Nc1ccc(Oc2nsnc(Cl)c2=O)cc1 [Compound 29, 3-chloro-5-[4-(3-phenylureido)-phenoxy]-4H--1,2,6-thiadiazin-4-one]	19	14	0	0	4 (80-100)	4 (80-100)	4 (80-100)	0 (0-10)											
CCCCOc1ccc(Oc2nsnc(Cl)c2=O)cc1 [Compound 6, 3-chloro-5-(4-n-butoxyphenoxy)-4H--1,2,6-thiadiazin-4-one]	15	0	19	19	1 (10-40)	0 (0-10)	0 (0-10)	0 (0-10)											
Cc1ccc(Oc2nsnc(Cl)c2=O)c(C)c1 [Compound 23, 3-chloro-5-(2,4-dimethylphenoxy)-4H--1,2,6-thiadiazin-4-one]	21	42	46	58	4 (80-100)	3 (60-80)	1 (10-40)	0 (0-10)											
Nc1ccc(Oc2nsnc(Cl)c2=O)cc1 [Compound 27, 5-(4-aminophenoxy)-3-chloro-4H--1,2,6-thiadiazine-4-one hydrochloride]												24	24	0	81	0 (0-10)	0 (0-10)	0 (0-10)	0 (0-10)
CC(=O)Nc1cccc(Oc2nsnc(Cl)c2=O)c1 [Compound 42, 3-[(3-N--acetylamino)-phenoxy]-5-chloro-4H--1,2,6-thiadiazin-4-one]	7	11	32	68	4 (80-100)	4 (80-100)	4 (80-100)	1 (10-40)											
COc1ccc(Oc2nsnc(Cl)c2=O)cc1 [Compound 5, 3-chloro-5-(4-methoxyphenoxy)4H--1,2,6-thiadiazin-4-one]	4	22	48	63	3 (60-80)	0 (0-10)	0 (0-10)	0 (0-10)											
